In PubChem BioAssay (NCI):
Several values for one entry are separate records, joined by “and”; a condition that tells them apart may be missing. Identical values can stand only once.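 Briefly, cells in 96-well plates were exposed to five compound concentrations for 48 h, and endpoints were estimated by linear interpolation. Abbreviation: GI50, concentration required for 50% inhibition of growth. TGI marks complete inhibition of growth.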

Test system: RXF 393 renal
Test: NCI-60 cell line screen, 48 h

Row | Structure (SMILES) | GI50 [µM] | TGI [µM]
1 | C=CC1CC12C(=O)C1OC2(C)C2C(=O)c3cc4ccccc4cc3C(=O)C12 (configuration not stated) | 11.1 | 38

Test system: SK-MEL-2 melanoma
Test: NCI-60 cell line screen, 48 h

Row | Structure (SMILES) | TGI | GI50 [µM]
2 | O=[n+]1c2c(n([O-])c3ccccc31)CCCCCCCCCC2 | > 100 µM | –
3 | Cc1c2cccnc2c(C)c2c1c1cc(CO)ccc1n2C | 8.47 µM | 2.87
4 | O=C1CN=C(C[N+](=O)[O-])c2ccccc21 | > 100 µM | –
5 | CCCCN(CCCC)CC(C(=O)Nc1ccc([N+](=O)[O-])cc1[N+](=O)[O-])/C(C)=N\NC(=S)NN (configuration not stated) | > 100 µM | –
6 | S=C(N/N=C/c1ccco1)NC12CC3CC(CC(C3)C1)C2 | > 100 µM | –
7 | CS(=O)(=O)N/N=C/CN1C(=O)c2ccccc2C1=O | > 100 µM | –
8 | Ic1ccc(Nc2nc3nonc3nc2Nc2ccc(I)cc2)cc1 | 0.692 µM | 0.143
9 | CCOC(=O)/C=C/C(C(=O)/C=C/c1ccc(OC2CCCCO2)c(OC)c1)=C(O)\C=C\c1ccc(OC2CCCCO2)c(OC)c1 (configuration not stated) | 15.2 µM | 3.27
10 | COc1ccc(OC)c(NC(=O)C(=O)NNC(=O)c2sc(NNC(C)=O)nc2C)c1 | > 100 µM | –
11 | O=[N+]([O-])c1nccn1CC(O)c1ccc(F)cc1 (configuration not stated) | > 100 µM | –
12 | COc1ccc(NC(=O)CCc2cc(-c3ccc(O)c(OC)c3)nc(NC#N)n2)cc1 | > 100 µM | –
13 | O=C1c2ccccc2C2(Br)C(=O)c3ccccc3C12 (configuration not stated) | > 100 µM | –
14 | COc1ccc(N(C)c2ncnc3occ(C)c23)cc1 | 58.7 µM | < 0.01
15 | CCOC(=O)Oc1c(OC)cc(C(=O)NC2CCc3cc(OC)c(OC)c(OC)c3-c3ccc(SC)c(=O)cc32)cc1OC (configuration not stated) | 0.0832 µM | –
16 | CC(=O)Nc1ccc(C(=O)NN2C(=O)C(Cl)C2c2ccccc2)cc1 (configuration not stated) | > 100 µM | –
17 | COC(=O)c1cc2c(cc1O)[C@@H](NC(C)=O)CCc1cc(OC)c(OC)c(OC)c1-2 | 0.0371 µM | < 0.01
18 | CC(C)(C)OC(=O)NCC(=O)OCc1ccccc1 | > 100 µM | –

Row | Structure (SMILES) | TGI | GI50 [µM]
19 | COCCOc1cc(F)c2c(Nc3ccc(NC(=O)Cn4cc(C(C)C)nn4)cc3)ncnc2c1 | > 100 µM | 44.7
20 | Cc1ccc(SC(C)/C=C/NNC2=NC(c3ccccc3)C(c3ccccc3)=NN2)cc1 (configuration not stated) | > 100 µM | –
21 | CC(C)(C)[SiH]12(OC(C(F)(F)F)(C(F)(F)F)c3ccccc31)OC(C(F)(F)F)(C(F)(F)F)c1ccccc12 | 31.1 µM | –
22 | Cc1nnc(S(=O)(=O)c2ccc(N=Nc3c(N)nc(N)nc3N)cc2)s1 | > 100 µM | –
23 | O=S(O)CCCCSSCC(O)C(O)CSSCCCCS(=O)O (configuration not stated) | 37.4 µM and 49.8 µM | –
24 | CNCCNc1c2c(c(NCCNC)c3c(CN(C)C)c[nH]c13)C(=O)c1ccccc1C2=O | 16.4 µM | 2.94
25 | O=C1OC(c2ccccc2)=N/C1=C/C=C/c1ccco1 | > 100 µM | –
26 | Clc1ccc2c(NCCCNc3nccc(Nc4ccc(Br)cc4)n3)ccnc2c1 | 3.67 µM | 2.1
27 | Cc1ccccc1N1C(=O)/C(=C/c2ccc(N(CCC#N)CCC#N)cc2)N=C1c1cc([N+](=O)[O-])ccc1Cl | > 100 µM | –
28 | CC1OC2CC(=O)OC2C2=C1C(=O)c1c(O)cccc1C2=O (configuration not stated) | 0.272 µM | 0.0885
29 | C/C1=C\CC[C@@]2(C)O[C@@H]2[C@H]2OC(=O)[C@@H](CN(C)C)[C@@H]2CC1 | 34.8 µM | 14.2
30 | C=C(C=O)C1CCC2(C(=O)O)CCC3(C)C(CCC4C5(C)CCC(O)C(C)(C)C5CCC43C)C12 (configuration not stated) | 12 µM | 3.82
31 | Cc1ccc(S(=O)(=O)NCC2CCCCC2=O)cc1 (configuration not stated) | > 100 µM | –
32 | CCC[CH2][Sn]([CH2]CCC)([CH2]CCC)[O]C(=O)CC | 0.37 µM | 0.186
33 | CNC(=S)NC1CCCCC1NC(=S)NC (configuration not stated) | > 100 µM | –
34 | C=C(C)[C@@]12OC3(/C=C/C=C/CCCCC)O[C@@H]1[C@@H]1[C@@H]4O[C@]4(CO)[C@@H](O)[C@]4(O)C(=O)C(C)=C[C@H]4[C@@]1(O3)[C@H](C)[C@H]2OC(=O)c1ccccc1 | 3.85 µM | 1.48
35 | C=CC1CC12C(=O)C1OC2(C)C2C(=O)c3cc4ccccc4cc3C(=O)C12 (configuration not stated) | > 100 µM | 45.8

Test system: SNB-75 CNS
Test: NCI-60 cell line screen, 48 h

Row | Structure (SMILES) | TGI | GI50 [µM]
36 | O=[n+]1c2c(n([O-])c3ccccc31)CCCCCCCCCC2 | > 100 µM | –
37 | CNC(=S)N(C)C(=S)Nn1c(=O)c(C)nn(C)c1=S | > 100 µM | –
38 | CCCCCCCCCC/C=C/CC(=O)SCCNC(=O)CCNC(=O)[C@@H](O)C(C)(C)COP(=O)(O)OP(=O)(O)OCC1OC(n2cnc3c(N)ncnc32)C(O)C1OP(=O)(O)O (some centres not stated) | > 10 µM | –
39 | O=C1CN=C(C[N+](=O)[O-])c2ccccc21 | > 100 µM | –
40 | CCCCN(CCCC)CC(C(=O)Nc1ccc([N+](=O)[O-])cc1[N+](=O)[O-])/C(C)=N\NC(=S)NN (configuration not stated) | > 100 µM | –
41 | S=C(N/N=C/c1ccco1)NC12CC3CC(CC(C3)C1)C2 | > 100 µM | –
42 | CS(=O)(=O)N/N=C/CN1C(=O)c2ccccc2C1=O | > 100 µM | –
43 | Ic1ccc(Nc2nc3nonc3nc2Nc2ccc(I)cc2)cc1 | > 100 µM | 0.227
44 | O=[N+]([O-])c1nccn1CC(O)c1ccc(F)cc1 (configuration not stated) | > 100 µM | –
45 | O=C1c2ccccc2C2(Br)C(=O)c3ccccc3C12 (configuration not stated) | > 100 µM | –
46 | COc1ccc(N(C)c2ncnc3occ(C)c23)cc1 | > 52 µM | < 0.01
47 | CCOC(=O)Oc1c(OC)cc(C(=O)NC2CCc3cc(OC)c(OC)c(OC)c3-c3ccc(SC)c(=O)cc32)cc1OC (configuration not stated) | < 0.007 µM | < 0.007
48 | CC(=O)Nc1ccc(C(=O)NN2C(=O)C(Cl)C2c2ccccc2)cc1 (configuration not stated) | > 100 µM | –
49 | CC(C)(C)OC(=O)NCC(=O)OCc1ccccc1 | > 100 µM | –
50 | COCCOc1cc(F)c2c(Nc3ccc(NC(=O)Cn4cc(C(C)C)nn4)cc3)ncnc2c1 | > 100 µM | 28.2
51 | Cc1ccc(SC(C)/C=C/NNC2=NC(c3ccccc3)C(c3ccccc3)=NN2)cc1 (configuration not stated) | > 100 µM | –
52 | CC(C)(C)[SiH]12(OC(C(F)(F)F)(C(F)(F)F)c3ccccc31)OC(C(F)(F)F)(C(F)(F)F)c1ccccc12 | 7.18 µM | –
53 | O=S(O)CCCCSSCC(O)C(O)CSSCCCCS(=O)O (configuration not stated) | > 100 µM and 88.7 µM | –
54 | CNCCNc1c2c(c(NCCNC)c3c(CN(C)C)c[nH]c13)C(=O)c1ccccc1C2=O | 22 µM | 7.14
55 | Clc1ccc2c(NCCCNc3nccc(Nc4ccc(Br)cc4)n3)ccnc2c1 | 2.57 µM | 1.3
56 | Cc1ccccc1N1C(=O)/C(=C/c2ccc(N(CCC#N)CCC#N)cc2)N=C1c1cc([N+](=O)[O-])ccc1Cl | > 100 µM | –
57 | CC1OC2CC(=O)OC2C2=C1C(=O)c1c(O)cccc1C2=O (configuration not stated) | 0.317 µM | 0.13
58 | C=C(C=O)C1CCC2(C(=O)O)CCC3(C)C(CCC4C5(C)CCC(O)C(C)(C)C5CCC43C)C12 (configuration not stated) | 32.6 µM | 10.8
59 | Cc1ccc(S(=O)(=O)NCC2CCCCC2=O)cc1 (configuration not stated) | 93.1 µM | –
60 | CCC[CH2][Sn]([CH2]CCC)([CH2]CCC)[O]C(=O)CC | 0.349 µM | 0.144
61 | CNC(=S)NC1CCCCC1NC(=S)NC (configuration not stated) | > 100 µM | –
62 | C=CC1CC12C(=O)C1OC2(C)C2C(=O)c3cc4ccccc4cc3C(=O)C12 (configuration not stated) | > 100 µM | 35.5

Test system: SR leukemia
Test: NCI-60 cell line screen, 48 h

Row | Structure (SMILES) | TGI | GI50 [µM]
63 | O=[n+]1c2c(n([O-])c3ccccc31)CCCCCCCCCC2 | > 100 µM | –
64 | CNC(=S)N(C)C(=S)Nn1c(=O)c(C)nn(C)c1=S | > 100 µM | –
65 | OCCN1CN(CCO)CN(c2nc(N3CN(CCO)CN(CCO)C3)nc(N3CN(CCO)CN(CCO)C3)n2)C1 | 0.63 ng/mL | –
66 | O=C1CN=C(C[N+](=O)[O-])c2ccccc21 | > 100 µM | –
67 | CS(=O)(=O)N/N=C/CN1C(=O)c2ccccc2C1=O | > 100 µM | –
68 | COc1ccc(OC)c(NC(=O)C(=O)NNC(=O)c2sc(NNC(C)=O)nc2C)c1 | > 100 µM | –
69 | COc1ccc(NC(=O)CCc2cc(-c3ccc(O)c(OC)c3)nc(NC#N)n2)cc1 | > 100 µM | –
70 | COc1ccc(N(C)c2ncnc3occ(C)c23)cc1 | 0.236 µM | < 0.01
71 | CCOC(=O)Oc1c(OC)cc(C(=O)NC2CCc3cc(OC)c(OC)c(OC)c3-c3ccc(SC)c(=O)cc32)cc1OC (configuration not stated) | < 0.007 µM | –
72 | COC(=O)c1cc2c(cc1O)[C@@H](NC(C)=O)CCc1cc(OC)c(OC)c(OC)c1-2 | > 100 µM | < 0.01
73 | Cc1ccc(SC(C)/C=C/NNC2=NC(c3ccccc3)C(c3ccccc3)=NN2)cc1 (configuration not stated) | 65.1 µM | –
74 | CC(C)(C)[SiH]12(OC(C(F)(F)F)(C(F)(F)F)c3ccccc31)OC(C(F)(F)F)(C(F)(F)F)c1ccccc12 | 6.38 µM | –
75 | Cc1nnc(S(=O)(=O)c2ccc(N=Nc3c(N)nc(N)nc3N)cc2)s1 | > 100 µM | –
76 | O=C1OC(c2ccccc2)=N/C1=C/C=C/c1ccco1 | > 100 µM | –
77 | Cc1ccccc1N1C(=O)/C(=C/c2ccc(N(CCC#N)CCC#N)cc2)N=C1c1cc([N+](=O)[O-])ccc1Cl | > 100 µM | –
78 | C=C(C=O)C1CCC2(C(=O)O)CCC3(C)C(CCC4C5(C)CCC(O)C(C)(C)C5CCC43C)C12 (configuration not stated) | > 100 µM | 2.23
79 | CNC(=S)NC1CCCCC1NC(=S)NC (configuration not stated) | > 100 µM | –
